{"source": "patent US5807819A", "about": "“Peptides useful for altering bone resorption” (priority 1995, dated 1998)", "key": {"[1]": {"assay": "Parathyroid hormone-induced hypercalcemia in mice", "assay_type": "in vivo, Swiss-Webster mice", "settings": "parathyroidectomized mice, 4 hr i.v. peptide infusion, FIG. 9", "text": "Parathyroid hormone (PTH) activates osteoclasts, which are involved in bone resorption. Associated with the increased osteoclast activity is an increase in serum calcium. The PTH-induced hypercalcemia assay measures the level of serum calcium, which is an indication of bone resorption in a subject (Fischer et al., Endocrinology 132:1411-1413 (1993), which is incorporated herein by reference).\nSwiss-Webster mice, which had been parathyroidectomized two weeks prior to beginning the assay, were obtained from Taconic Lab Animals and Services (Germantown N.Y.). Femoral vein catheters (PE-50 fused with PE10 polyethylene tubing; Becton Dickinson; Parsippany, N.J.) were installed in the mice, flushed and locked with heparinized saline (1:10), sutured to adjacent muscle and internalized within the inguinal space of the incision before closing the incision with wound clips. […]\nThe experiment was initiated by feeding the mice a calcium-deficient diet overnight, then injecting the mice the following morning with a bolus of 0.2 mg PTH/kg (hPTH 1-34; Bachem; Torrance Calif.), intravenously. […] Various doses of a peptide or vehicle were infused into an animal for 4 hr, then ionized serum calcium again was measured. […] Serum calcium measurements were expressed as the difference between the value 30 min before the PTH pulse and 4 hr after peptide infusion was started. […]"}, "[2]": {"test_system": "αV β3 integrin receptor", "assay": "Series of in vitro assays of Example II for potency and selectivity (FIG. 2)", "settings": "for receptor selectivity classification / potency classification: summary of assays; for activity (FIG. 2): minimal-element peptides", "text": "Such peptides can include, for example, peptides within the pharmacophore groups exemplified herein or peptides within other pharmacophore groups. […] The selectivity of a peptide for an integrin receptor involved in osteoclast binding to bone can be determined, for example, using the integrin receptor assays and cell attachment and detachment assays described herein.\nComparison of the IC50 values generated using the JY cell assay and the αV β3 ELISA, which measure binding of the αV β3 receptor involved in osteoclast binding to bone, with the αV β5 and α5 β1 receptor-specific ELISAs, which represent receptors that likely are not involved in osteoclast attachment, provides insight into the receptor selectivity of the peptides."}, "[3]": {"test_system": "platelet αIIb β3 integrin receptor", "assay": "Platelet aggregation assay", "assay_type": "cell-based", "settings": "ADP-induced, platelet-rich plasma from heparinized blood; read-out: IC50 inhibiting platelet aggregation", "protocol": "This example provides a method for performing a platelet aggregation assay, which is a measure of peptide binding to the platelet αIIb β3 integrin receptor.\nPlatelet-rich plasma (PRP) was prepared fresh from heparinized whole blood. 0.6 ml PRP was placed in a 1.5 ml microcentrifuge tube and centrifuged for 4 min at 14,000×g. Following centrifugation, 0.5 ml supernatant (platelet poor plasma; PPP) was transferred to a 1 ml silicon coated aggregometer tube (Chrono-Log Corp.; Havertown Pa.) and placed in the PPP slot of a Chrono-Log Model 400VS aggregometer (see Tschopp et al., Thromb. Haem. 72:119-124 (1994), which is incorporated herein by reference).\nPlatelet concentration of the PRP sample was determined using a cell counter and the sample was diluted with homologous PPP to obtain 300,000 platelets/μl. 0.5 ml of the diluted PRP was placed in an aggregometer tube with a stir bar and incubated for 5 min at 37° C. without stirring. The tube was transferred to the PRP slot in the aggregometer and the sample was stirred at 1200 rpm for 5-10 min at 37° C. […]\nPlatelet aggregation was initiated by adding adenosine diphosphate (ADP) to a concentration of 10 μM. Platelet aggregation was measured in 2 mm units from baseline (before ADP addition) to response at two min from the time of ADP addition or maximal response (if before 2 min), whichever is larger. […]"}, "[4]": {"test_system": "rat osteoclasts", "assay": "Rat osteoclast attachment assay compared with MG63/NRK cell attachment", "assay_type": "cell-based", "settings": "FIGS. 7 and 8, FCS substrate", "protocol": "To determine the effect of a peptide on the attachment of rat osteoclasts in vitro, 100 μl aliquots of the rat pup bone cell suspension described in Example II.B.2., above, were added in triplicate to 96 well \"MAXISORP\" plates coated with specific substrates or with FCS. Substrate coated plates were used to determine the ability of peptides to inhibit attachment or induce detachment of an osteoclast from a ligand such as vitronectin, fibronectin, osteopontin or collagen I (Collaborative Research), which are ligands present in bone. Substrates were added to 96 well plates (50 μl of a 5-10 μg/ml solution in sodium carbonate, pH 9.5) and incubated for 2 hr at 37° C. For FCS control wells, 100 μl 10% FCS was added. Wells were aspirated, then washed 2× with PBS and blocked with 1% bovine serum albumin in PBS for 2 hr at 37° C. Wells were aspirated and washed again 2× with PBS. Cells were seeded in duplicate at 4×10^4 cells/well. […]\nFollowing incubation, the medium and nonadherent cells were removed by aspiration from each well. […] Adherent osteoclasts were counted by light microscopy. […]\nMG63 and NRK cell lines were purchased from ATTC (Rockville Md.). […] Following staining, the stain was extracted with 20% acetic acid and the OD562 of the extracted stain was determined. […]\nSelectivity of a peptide can be determined by comparing the results of FIGS. 7 and 8 (see, also FIG. 2)."}, "[5]": {"test_system": "chick osteoclasts", "assay": "Chick cell detachment assay (osteoclasts vs total cells)", "assay_type": "cell-based", "settings": "FIG. 5, serum-coated plates", "method": "Peptides were evaluated for their ability to detach osteoclasts from a matrix consisting of serum-coated microtiter plates.\nBriefly, chick long bones (femur and tibia) were dissected free of soft tissue and minced in prewarmed minimum essential medium (MEM, pH 7.2; Irvine Scientific; Irvine, Calif.) with Earl's salts, supplemented with 10% heat-inactivated fetal calf serum (FCS) and 200 mM glutamine and containing 100 μg/ml streptomycin and 100 IU/ml penicillin. Cells were removed from bone fragments by vigorous shaking in a capped centrifuge tube. Large particulate material was allowed to settle prior to removal of the cell suspension. After repeated agitation of the cells with a large transfer pipette, 100 μl aliquots of cells were added in triplicate to Corning 96 well microtiter plates that had been preincubated for 1 hr with 100 μl of MEM/FCS media.\nThe cells were incubated for 90 min at 37° C. in an atmosphere containing 10% CO2. Following incubation, the cell layers were carefully washed 2× with 200 μl sterile PBS, then 100 μl of fresh MEM/FCS was added. Peptides were diluted in the same medium and added to each well. The cells were incubated overnight as described above. […] 5 min using 0.1% crystal violet and multinucleated osteoclasts were counted by light microscopy. […]"}, "[6]": {"test_system": "αV β3 integrin receptor", "settings": "rabbit, in vivo; cited from earlier work"}}, "note": "Where a SMILES comes first, the peptide text is derived from it. Bridges are numbered along the chain shown (N, C = ends). [ ]: non-standard residue; d: D form. Tic = O=C(O)[C@@H]1Cc2ccccc2CN1; Pen = CC(C)(S)[C@H](N)C(=O)O; Mpa = O=C(O)CCS"}
{"molecule": "CC(C)[C@@H]1NC(=O)[C@H](CC(=O)O)NC(=O)[C@H](CC(=O)O)NC(=O)CNC(=O)[C@H](CCCNC(=N)N)NC(=O)CCSSC[C@@H](C(N)=O)NC1=O", "note": "[compound 191] ([Mpa]RGDDVC-NH2; disulfide 1-7)", "values": [{"measurement": "PTH-induced rise in serum ionized calcium", "setting": "[1]", "result": "decreased the PTH-induced rise in serum ionized calcium in a dose responsive manner"}]}
{"molecule": "CC(=O)N[C@H]1CSSC(C)(C)[C@@H](C(N)=O)NC(=O)[C@@H]2CCCN2C(=O)[C@H](CC(N)=O)NC(=O)[C@H](CC(=O)O)NC(=O)CNC(=O)[C@H](CCCNC(=N)N)NC1=O", "note": "[compound 228] (Ac-CRGDNP[Pen]-NH2; disulfide 1-7)", "values": [{"measurement": "receptor selectivity classification", "setting": "[2]", "result": "particularly receptor selective"}]}
{"molecule": "CC(=O)N[C@H]1CSSC[C@@H](C(N)=O)NC(=O)[C@@H]2Cc3ccccc3CN2C(=O)[C@H](CO)NC(=O)[C@H](CC(=O)O)NC(=O)CNC(=O)[C@H](CCCNC(=N)N)NC1=O", "note": "[compound 812, Ac-CRGDS(Tic)C-NH2] (Ac-CRGDS[Tic]C-NH2; disulfide 1-7)", "values": [{"measurement": "activity (FIG. 2)", "setting": "[2]", "result": "demonstrate activity"}, {"measurement": "potency classification", "setting": "[2]", "result": "particularly potent"}]}
{"molecule": "COc1ccc(C[C@@H]2NC(=O)[C@H](CC(=O)O)NC(=O)CNC(=O)[C@H](CCCNC(=N)N)NC(=O)CC[C@@H](C(N)=O)NC(=O)[C@H](CCCNC(=N)N)NC2=O)cc1", "note": "[compound 940, RGD(YOMe)RE-NH2]", "values": [{"measurement": "IC50", "setting": "[3]", "result": 820, "unit": "nM"}]}
{"molecule": "CC(=O)N[C@@H]1C(=O)N[C@@H](Cc2ccccc2)C(=O)N[C@@H](C)C(=O)N[C@@H](CCCNC(=N)N)C(=O)NCC(=O)N[C@@H](CC(=O)O)C(=O)N[C@@H](CC(N)=O)C(=O)N2CCC[C@H]2C(=O)N[C@H](C(N)=O)CSSC1(C)C", "note": "[peptide 214] (Ac-[Pen]FARGDNPC-NH2; disulfide 1-9)", "values": [{"measurement": "potency classification", "setting": "[2]", "result": "particularly potent"}]}
{"molecule": "CC(C)[C@@H]1NC(=O)[C@H](CC(=O)O)NC(=O)[C@H](CC(=O)O)NC(=O)CNC(=O)[C@H](CCCNC(=N)N)NC(=O)CC[C@@H](C(N)=O)NC1=O", "note": "[peptide 386, RGDDVE-NH2] (RGDDVE-NH2; lactam N-6)", "values": [{"measurement": "activity (FIG. 2)", "setting": "[2]", "result": "demonstrate activity"}, {"measurement": "receptor selectivity classification", "setting": "[2]", "result": "particularly receptor selective"}, {"measurement": "PTH-induced rise in serum ionized calcium", "setting": "[1]", "result": "relatively low level of serum calcium"}, {"measurement": "selectivity: osteoclast attachment versus MG63 or NRK attachment", "setting": "[4]", "result": "highly active on osteoclast attachment but were less active on MG63 or NRK attachment"}, {"measurement": "selective detachment of osteoclasts compared to other cell types", "setting": "[5]", "result": "caused selective detachment of osteoclasts as compared to other cell types"}]}
{"molecule": "G(Pen)GRGDSPCA", "values": [{"measurement": "neointimal hyperplasia", "setting": "[6]", "result": "can inhibit neointimal hyperplasia"}]}
